Test results taken from article PMC8001115 (Drug Design, Development and Therapy, 2021).
Several values for one entry are separate records, joined by “and”; a condition that tells them apart may be missing. Identical values can stand only once.

How the values were obtained:
COX-1 = COX-1 (Homo sapiens, UniProt P23219); test: Cyclooxygenase-1; format: biochemical; conditions: IC50 COX-1, ±SEM, triplicate
COX-2 = target: T1, COX-2 (Homo sapiens, UniProt P35354); test: Cyclooxygenase-2; format: biochemical; conditions: for IC50: IC50 COX-2, ±SEM, triplicate
T1 sequence (P35354 18-604): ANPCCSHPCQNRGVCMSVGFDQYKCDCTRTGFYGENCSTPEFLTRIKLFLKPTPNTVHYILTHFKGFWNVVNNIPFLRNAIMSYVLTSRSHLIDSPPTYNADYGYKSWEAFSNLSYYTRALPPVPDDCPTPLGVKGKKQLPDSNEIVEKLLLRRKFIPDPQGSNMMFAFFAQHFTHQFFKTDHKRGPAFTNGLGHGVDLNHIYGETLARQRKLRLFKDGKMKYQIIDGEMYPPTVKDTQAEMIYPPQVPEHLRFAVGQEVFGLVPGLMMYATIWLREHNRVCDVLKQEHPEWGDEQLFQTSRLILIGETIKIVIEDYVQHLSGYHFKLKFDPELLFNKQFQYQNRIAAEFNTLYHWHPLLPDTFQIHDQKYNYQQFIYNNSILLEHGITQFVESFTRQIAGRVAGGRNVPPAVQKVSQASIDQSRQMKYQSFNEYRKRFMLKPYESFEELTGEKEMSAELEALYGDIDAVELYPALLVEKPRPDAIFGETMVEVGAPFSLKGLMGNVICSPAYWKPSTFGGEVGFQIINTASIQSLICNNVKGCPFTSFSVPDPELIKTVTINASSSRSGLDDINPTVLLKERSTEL

Balb C mice [1] = test: Acute toxicity study; format: in vivo; conditions: I/P, highest tested dose 150 mg/kg, 24 hours
Balb C mice [2] = test: Acetic acid induced writhing test; format: in vivo; conditions: 50 mg/kg
Balb C mice [3] = test: Tail immersion; format: in vivo
[4] = system: Alpha-2 Adrenergic Receptor; test: Involvement of adrenergic receptors; format: in vivo, mice
Dopaminergic Receptor = test: Involvement of dopaminergic receptors; format: in vivo, mice
Balb C mice [5] = test: Formalin-induced paw-licking test
[6] = 25 mg/kg after yohimbine (YH, 1 mg/kg)
[7] = 50 mg/kg after yohimbine (YH, 1 mg/kg)
[8] = 25 mg/kg after haloperidol (HL, 1 mg/kg)
[9] = 50 mg/kg after haloperidol (HL, 1 mg/kg)
[10] = 25 mg/kg, with naloxone (N, 2 mg/kg s.c.)
[11] = 50 mg/kg, with naloxone (N, 2 mg/kg s.c.)
[12] = haloperidol alone, 1 mg/kg i.p.
[13] = 10 mg/kg, with naloxone (N, 2 mg/kg s.c.)
[14] = 5 mg/kg, with naloxone (N, 2 mg/kg s.c.)

COX-1, sequence (P23219 24-599): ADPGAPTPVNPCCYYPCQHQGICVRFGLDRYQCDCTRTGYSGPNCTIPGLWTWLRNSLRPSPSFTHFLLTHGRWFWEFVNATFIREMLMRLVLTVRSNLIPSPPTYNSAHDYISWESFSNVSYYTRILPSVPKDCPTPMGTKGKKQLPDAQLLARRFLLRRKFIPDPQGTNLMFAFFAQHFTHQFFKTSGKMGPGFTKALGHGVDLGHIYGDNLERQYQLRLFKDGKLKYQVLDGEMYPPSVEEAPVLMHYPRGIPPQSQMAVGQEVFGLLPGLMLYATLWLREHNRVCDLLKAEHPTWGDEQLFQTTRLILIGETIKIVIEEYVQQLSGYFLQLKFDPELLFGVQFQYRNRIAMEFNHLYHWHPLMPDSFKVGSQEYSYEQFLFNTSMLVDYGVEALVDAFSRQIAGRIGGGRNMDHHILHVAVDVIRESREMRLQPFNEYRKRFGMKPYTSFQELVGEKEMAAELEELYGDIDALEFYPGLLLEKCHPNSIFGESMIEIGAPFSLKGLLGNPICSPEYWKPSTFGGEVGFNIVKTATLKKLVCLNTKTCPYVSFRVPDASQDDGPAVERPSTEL

## CCC[C@](C)(C=O)[C@@H]1CC(=O)N(c2ccccc2)C1=O [Compound 4, (S)-2-((S)-2,5-dioxo-1-phenylpyrrolidin-3-yl)-2-methylpentanal]
COX-1
  IC50: 128 µM
COX-2
  Selectivity Index (SI) (IC50 COX-1/IC50 COX-2): 1.94
  IC50: 65 µM and 65.9 µM
Balb C mice [1]
  Acute toxicity (adverse effect, change in body weight, mortality): safe
Balb C mice [2]; n=6
  Inhibition of writhing: 52.2%
Balb C mice [3]; 25 mg/kg i.p., 15 Minutes
  Tail flick Response (%): 11.1%
Balb C mice [3]; 25 mg/kg i.p., 30 Minutes
  Tail flick Response (%): 14.8%
Balb C mice [3]; 25 mg/kg i.p., 45 Minutes
  Tail flick Response (%): 16.3%
Balb C mice [3]; 25 mg/kg i.p., 60 Minutes
  Tail flick Response (%): 18.9%
Balb C mice [3]; 25 mg/kg i.p., 75 Minutes
  Tail flick Response (%): 29.5%
Balb C mice [3]; 25 mg/kg i.p., 75 Minutes, listed as Comp 4
  Tail flick Response (%): 29.5%
Balb C mice [3]; 25 mg/kg i.p., 90 Minutes
  Tail flick Response (%): 19.8%
Balb C mice [3]; 50 mg/kg i.p., 15 Minutes
  Tail flick Response (%): 14.8%
Balb C mice [3]; 50 mg/kg i.p., 30 Minutes
  Tail flick Response (%): 22.7%
Balb C mice [3]; 50 mg/kg i.p., 45 Minutes
  Tail flick Response (%): 33.7%
Balb C mice [3]; 50 mg/kg i.p., 60 Minutes
  Tail flick Response (%): 42.1%
Balb C mice [3]; 50 mg/kg i.p., 75 Minutes
  Tail flick Response (%): 53.4%
Balb C mice [3]; 50 mg/kg i.p., 75 Minutes, listed as Comp 4
  Tail flick Response (%): 53.4%
Balb C mice [3]; 50 mg/kg i.p., 90 Minutes
  Tail flick Response (%): 46.2%
Balb C mice [3]; 50 mg/kg i.p., 90 Minutes, listed as Comp 4
  Tail flick Response (%): 46.2%
[4]; [6]
  % Activity: 15.58±1.44%
  Writhing: 57.09±2.20
[4]; [7]
  % Activity: 16.08±1.08%
  Writhing: 56.73±1.05
Dopaminergic Receptor; [8]
  % Activity: 16.52±1.25%
  Writhing: 56.42±1.05
Dopaminergic Receptor; [9]
  % Activity: 16.70±1.16%
  Writhing: 56.23±1.05
Balb C mice [5]; 25 mg/kg
  Inhibition (%) 1st Phase: 22.30±0.85%
  Inhibition (%) 2nd Phase: 38.94±2.88%
  Licking Time 1st Phase: 39.35 ± 1.231 s
  Licking Time 2nd Phase: 45.12 ± 1.145 s
Balb C mice [5]; [10]
  Inhibition (%) 1st Phase: 17.47±1.89%
  Inhibition (%) 2nd Phase: 33.76±2.53%
  Licking Time 1st Phase: 41.80 ± 1.33 s
  Licking Time 2nd Phase: 48.95 ± 1.40 s
Balb C mice [5]; 50 mg/kg
  Inhibition (%) 1st Phase: 36.16±4.47%
  Inhibition (%) 2nd Phase: 50.66±3.84%
  Licking Time 1st Phase: 32.33 ± 1.356 s
  Licking Time 2nd Phase: 36.45 ± 1.232 s
Balb C mice [5]; [11]
  Inhibition (%) 1st Phase: 23.69±1.44%
  Inhibition (%) 2nd Phase: 42.15±1.43%
  Licking Time 1st Phase: 38.65 ± 1.25 s
  Licking Time 2nd Phase: 42.75 ± 1.65 s

## CC(=O)CC(C[N+](=O)[O-])c1ccccc1 (stereo not shown) [Compound 9, 5-nitro-4-phenylpentan-2-one]
COX-1
  IC50: 67.6 ± 1.02 µM
COX-2
  Selectivity Index (SI) (IC50 COX-1/IC50 COX-2): 0.91
  IC50: 73.5 ± 1.38 µM

## O=C(CCCN1CCC(O)(c2ccc(Cl)cc2)CC1)c1ccc(F)cc1 [Haloperidol, haloperidol, reference compound]
Dopaminergic Receptor; [12]
  % Activity: 17.50±1.28%
  Writhing: 55.78±2.02

## COc1ccc2c(c1)c(CC(=O)O)c(C)n2C(=O)c1ccc(Cl)cc1 [Indomethacin, indomethacin, reference compound]
Balb C mice [5]; 10 mg/kg
  Inhibition (%) 1st Phase: 23.69±3.24%
  Inhibition (%) 2nd Phase: 74.34±2.86%
  Licking Time 1st Phase: 38.65 ± 1.37 s
  Licking Time 2nd Phase: 18.96 ± 1.342 s
Balb C mice [5]; [13]
  Inhibition (%) 1st Phase: 11.64±1.20%
  Licking Time 1st Phase: 44.75 ± 1.76 s
  Licking Time 2nd Phase: 25.00 ± 1.249 s

## CN1CC[C@]23c4c5ccc(O)c4O[C@H]2[C@@H](O)C=C[C@H]3[C@H]1C5 [Morphine, morphine, reference compound]
Balb C mice [3]; 5 mg/kg, 15 Minutes
  Tail flick Response (%): 48.1%
Balb C mice [3]; 5 mg/kg, 30 Minutes
  Tail flick Response (%): 56.1%
Balb C mice [3]; 5 mg/kg, 45 Minutes
  Tail flick Response (%): 75%
Balb C mice [3]; 5 mg/kg, 60 Minutes
  Tail flick Response (%): 85%
Balb C mice [3]; 5 mg/kg, 75 Minutes
  Tail flick Response (%): 80.2%
Balb C mice [3]; 5 mg/kg, 75 Minutes, listed as morphine
  Tail flick Response (%): 80.2%
Balb C mice [3]; 5 mg/kg, 90 Minutes
  Tail flick Response (%): 78.4%
Balb C mice [3]; 5 mg/kg, 90 Minutes, listed as morphine
  Tail flick Response (%): 78.4%
Balb C mice [5]; 5 mg/kg
  Inhibition (%) 1st Phase: 87.16±3.32%
  Inhibition (%) 2nd Phase: 96.34±0.66%
  Licking Time 1st Phase: 6.50 ± 1.153 s
  Licking Time 2nd Phase: 2.70 ± 1.340 s
Balb C mice [5]; [14]
  Inhibition (%) 1st Phase: 2.68±1.20%
  Inhibition (%) 2nd Phase: 1.44±0.28%
  Licking Time 1st Phase: 49.29 ± 1.52 s
  Licking Time 2nd Phase: 72.83 ± 1.152 s

## COC(=O)[C@@H]1[C@H]2C[C@H]3c4[nH]c5ccccc5c4CCN3C[C@@H]2CC[C@@H]1O [Yohimbine, yohimbine, reference compound]
[4]; yohimbine alone, 1 mg/kg i.p.
  % Activity: 15.08±1.15%
  Writhing: 57.4±2.02

## O=C(O)Cc1ccccc1Nc1c(Cl)cccc1Cl [diclofenac sodium]
Balb C mice [2]; n=6
  Inhibition of writhing: 85%
Balb C mice [2]; n=6, listed as diclofenac
  Inhibition of writhing: 84.96%
